Data as given in patent publication US20260007613A1, “LONG-ACTING LOW-TOXICITY NOVEL CATIONIC LIPID COMPOUNDS AND COMPOSITION THEREOF” (BEIJING YOUCAREKECHUANG PHARMACEUTICAL TECHNOLOGY CO., LTD., priority 2023, published 2026).
Blank lines part the entries; values can stand above or below the compound they belong to.

What was measured:
293T cells [1] = test: Cell survival rate determination (CCK-8); format: cell-based; details: LNP formulation of Fluc-mRNA, 24 hours, CCK-8
Procedure, shortened: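 293T cells plated at 10,000/well (96-well), adhered overnight, then exposed 24 h to Fluc-mRNA LNP (cationic:neutral:structured:PEG-lipid 49:10:39.5:1.5) or Lipofectamine 3000. Viability by CCK-8, 1 h incubation, absorbance at 450 nm.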

[2] = Particle size and polydispersity index (PDI) of lipid nanoparticles by dynamic light scattering; format: physicochemical; details: LNP formulation prepared from the cationic lipid, 25° C.
Description: The particle size and polydispersity index (PDI) were determined by dynamic light scattering using Malvern laser particle size analyzer.
10 μL of the liposome solution was weighed, diluted to 1 mL with RNase-free deionized water, and added to the sample pool. Each sample was measured in triplicate. The measurement conditions were: […] scattering angle, and 25° C.

293T cells [3] = test: Fluorescent detection of Fluc-mRNA (cell transfection efficiency of LNP formulations); format: cell-based; details: for Relative light unit (RLU): LNP formulation of Fluc-mRNA, 96-well plate, 24 hours; for Multiples (YK-305): RLU of YK-305 / RLU of the lipid of the line; for Multiples (YK-310): RLU of YK-310 / RLU of the lipid of the line; for Multiples (YK-312): RLU of YK-312 / RLU of the lipid of the line; for Ratio relative to SM-102: RLU of the lipid / RLU of SM-102, times that of SM-102; for Multiples (YK-318): RLU of YK-318 / RLU of the lipid of the line; for Multiples (YK-318) / Multiples (YK-319): Tables 5, 7, 11; for Multiples (YK-319): RLU of YK-319 / RLU of the lipid of the line
Procedure, shortened: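 293T cells were seeded at 10,000/well and cultured overnight, then given LNP carrying […] Fluc-mRNA (cationic:neutral:structured:polymer-conjugated lipid 49:10:39.5:1.5 molar) for 24 h. Luminescence was developed with […] and imaged on IVIS.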

liver = test: Distribution of liposomes in mice: protein expression in the liver (live imaging); format: in vivo; details: at 6 h, intramuscular injection
Description: (§1) The LNP formulation containing […] Fluc-mRNA was injected intramuscularly into female BALB/C mice aged 4 to 6 weeks old and weighed 17 to 19 g, and the mice were intraperitoneally injected with fluorescent imaging substrate at specific time points after administration (6 h, 24 h, 48 h and 7 d), where the mice were free to move for 5 minutes, and then the average radiation intensity (corresponding to fluorescence expression intensity) of the protein expression of the mRNA carried by the LNP in the mice was detected by the IVIS Spectrum small animal live imaging device.
At 24 h, the LNP formulations prepared from all compounds had been metabolized in the liver and had no protein expression.

female BALB/C mice = test: Live imaging in mice: protein expression of Fluc-mRNA delivered by LNP formulations; format: in vivo
Description: In addition, the protein expression and duration of mRNA in mice delivered by the cationic lipid delivery carriers designed were also verified.
as §1

[4] = 6 h after intramuscular injection
[5] = 24 h after intramuscular injection
[6] = 48 h after intramuscular injection
[7] = 7 d after intramuscular injection

Structure (SMILES): CCCCCCCCC(CCCCCCCC)OC(=O)CCCCCN(CCCCCC(=O)OC(CCCCCCCC)CCCCCCCC)C[C@H](O)CN(CC)CCO [YK-313]
Cell survival rate (%) (293T cells [1]): 68.93% | PDI (%) [2]: 17.7% | Particle size (nm) [2]: 241 nm | Relative light unit (RLU) (293T cells [3]): 866536 RLU | Multiples (YK-305) (293T cells [3]): 31.63 | Multiples (YK-310) (293T cells [3]): 29.77 | Multiples (YK-312) (293T cells [3]): 23.25 | Ratio relative to SM-102 (293T cells [3]): 0.54 | protein expression in the liver (liver): no protein expression in the liver | average radiation intensity (female BALB/C mice; [4]): 442180 | average radiation intensity (female BALB/C mice; [5]): 104430 | average radiation intensity (female BALB/C mice; [6]): 25560 | average radiation intensity (female BALB/C mice; [7]): 3235

Structure (SMILES): CCCCCCCCCCCOC(=O)CCCCCN(CCO)CCCCCCCC(=O)OC(CCCCCCCC)CCCCCCCC [SM-102, reference compound]
Cell survival rate (%) (293T cells [1]): 69.45% | PDI (%) [2]: 28.2% | Particle size (nm) [2]: 177 nm | Multiples (YK-310) (293T cells [3]): 16.08 | Multiples (YK-312) (293T cells [3]): 12.56 | Multiples (YK-318) (293T cells [3]): 6.98 | Multiples (YK-319) (293T cells [3]): 15.25 | Ratio relative to SM-102 (293T cells [3]): 1.00 | protein expression in the liver (liver): had protein expression in the liver | average radiation intensity (female BALB/C mice; [4]): 701230

Structure (SMILES): CCCCCCCCC(CCCCCC)C(=O)OCCCCCCN(CCCCO)CCCCCCOC(=O)C(CCCCCC)CCCCCCCC (stereo not shown) [ALC-0315, reference compound]
Cell survival rate (%) (293T cells [1]): 51.03% | PDI (%) [2]: 21.2% | Particle size (nm) [2]: 231 nm | Multiples (YK-305) (293T cells [3]): 13.48 | Multiples (YK-310) (293T cells [3]): 12.69 | Multiples (YK-312) (293T cells [3]): 9.91 | Multiples (YK-318) (293T cells [3]): 5.50 | Multiples (YK-319) (293T cells [3]): 12.03 | Ratio relative to SM-102 (293T cells [3]): 1.27 | protein expression in the liver (liver): had protein expression in the liver | average radiation intensity (female BALB/C mice; [4]): 863760 | average radiation intensity (female BALB/C mice; [5]): 190480 | average radiation intensity (female BALB/C mice; [6]): 39810 | average radiation intensity (female BALB/C mice; [7]): 7047

More lines, main results first:

PDI (%) [2]: 15.2% | Particle size (nm) [2]: 147 nm | protein expression in the liver (liver): had protein expression in the liver
Structure (SMILES): CCCCCCC(CCCCCC)CCOC(=O)CCCCCCCN(CCO)CCCCCCCC(=O)OCCC(CCCCCC)CCCCCC [Compound 23, bis(3-hexylnonyl)-8,8′-((2-hydroxyethyl)azanediyl)dioctanoate, reference compound]
Cell survival rate (%) (293T cells [1]): 71.50% | Relative light unit (RLU) (293T cells [3]): 1356022 RLU | Multiples (YK-305) (293T cells [3]): 20.21 | Multiples (YK-310) (293T cells [3]): 19.02 | Multiples (YK-312) (293T cells [3]): 14.86 | Multiples (YK-318) (293T cells [3]): 8.25 | Multiples (YK-319) (293T cells [3]): 18.04 | Ratio relative to SM-102 (293T cells [3]): 0.85 | average radiation intensity (female BALB/C mice; [4]): 589400 | average radiation intensity (female BALB/C mice; [5]): 104530 | average radiation intensity (female BALB/C mice; [6]): 33125 | average radiation intensity (female BALB/C mice; [7]): 6240

protein expression in the liver (liver): had protein expression in the liver
Structure (SMILES): CCCCCCCCC(CCCCCCCC)OC(=O)CCCCCCCN(CCO)CCCCCCCC(=O)OCCC(CCCCCC)CCCCCC [Compound 21, reference compound]
Cell survival rate (%) (293T cells [1]): 70.21% | Relative light unit (RLU) (293T cells [3]): 1432170 RLU | Multiples (YK-305) (293T cells [3]): 19.14 | Multiples (YK-310) (293T cells [3]): 18.01 | Multiples (YK-312) (293T cells [3]): 14.07 | Multiples (YK-318) (293T cells [3]): 7.81 | Multiples (YK-319) (293T cells [3]): 17.08 | Ratio relative to SM-102 (293T cells [3]): 0.89 | average radiation intensity (female BALB/C mice; [4]): 610340 | average radiation intensity (female BALB/C mice; [5]): 109840 | average radiation intensity (female BALB/C mice; [6]): 30980 | average radiation intensity (female BALB/C mice; [7]): 6445

PDI (%) [2]: 39.1% | Particle size (nm) [2]: 182 nm
Structure (SMILES): CCCCCCCCCCC(CCCCCCCCCC)CCCOC(=O)CCCN(CCCC(=O)OCCCC(CCCCCCCCCC)CCCCCCCCCC)C[C@H](O)CN(CCO)CCO [YK-321, (S)-bis(4-decyltetradecyl)-4,4′-((3-(bis(2-hydroxyethyl)amino)-2-hydroxypropyl)azanediyl)dibutyrate]
Cell survival rate (%) (293T cells [1]): 72.34% | Relative light unit (RLU) (293T cells [3]): 1403416 RLU | Multiples (YK-305) (293T cells [3]): 18.33 | Multiples (YK-310) (293T cells [3]): 18.38 | Multiples (YK-312) (293T cells [3]): 14.36 | Multiples (YK-318) (293T cells [3]): 7.97 | Multiples (YK-319) (293T cells [3]): 17.43 | Ratio relative to SM-102 (293T cells [3]): 0.87 | average radiation intensity (female BALB/C mice; [4]): 615600 | average radiation intensity (female BALB/C mice; [5]): 101230 | average radiation intensity (female BALB/C mice; [6]): 36565 | average radiation intensity (female BALB/C mice; [7]): 6586

PDI (%) [2]: 19.3% | Particle size (nm) [2]: 150 nm | protein expression in the liver (liver): had protein expression in the liver
Structure (SMILES): CCCCCCCCCCCCC(O)CN(C)CCCCCC(=O)OCC(CCCCCC)CCCCCCCC (stereo not shown) [HHMA, reference compound]
Cell survival rate (%) (293T cells [1]): 66.47% | Relative light unit (RLU) (293T cells [3]): 2006110 RLU | Multiples (YK-305) (293T cells [3]): 13.66 | Multiples (YK-310) (293T cells [3]): 12.86 | Multiples (YK-312) (293T cells [3]): 10.04 | Multiples (YK-318) (293T cells [3]): 5.58 | Multiples (YK-319) (293T cells [3]): 12.20 | Ratio relative to SM-102 (293T cells [3]): 1.25 | average radiation intensity (female BALB/C mice; [4]): 651020 | average radiation intensity (female BALB/C mice; [5]): 119940 | average radiation intensity (female BALB/C mice; [6]): 32557 | average radiation intensity (female BALB/C mice; [7]): 5871
